How the values were obtained:
Assay in all cases: relative viability (nuclei count vs DMSO), 5 days (fraction); higher = more cells survive
Linsitinib + Lapatinib = compound: C[C@]1(O)C[C@@H](c2nc(-c3ccc4ccc(-c5ccccc5)nc4c3)c3c(N)nccn32)C1 [Linsitinib] + CS(=O)(=O)CCNCc1ccc(-c2ccc3ncnc(Nc4ccc(OCc5cccc(F)c5)c(Cl)c4)c3c2)o1 [Lapatinib] (partner 2 µM)
Outline: (§1)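 Cells from lung cancer lines were seeded into 1536-well plates and, one day later, dosed by pin tool. Treatments were either a single drug or a fixed dose of an anchor drug with five library-drug doses (not always all listed) in √10 steps. After 5 days, nuclei were stained in a one-step fixation (final 0.05% Triton X-100, 1% formaldehyde, 1 ug/ml Hoechst) and counted on 4× images, and relative viability is the treated-to-vehicle nuclei ratio, as the median of duplicate plates.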

Linsitinib + Crizotinib = compound: C[C@]1(O)C[C@@H](c2nc(-c3ccc4ccc(-c5ccccc5)nc4c3)c3c(N)nccn32)C1 [Linsitinib] + C[C@@H](Oc1cc(-c2cnn(C3CCNCC3)c2)cnc1N)c1c(Cl)ccc(F)c1Cl [Crizotinib] (partner 1 µM)
Outline: as §1

Ispinesib + OSI-027 = compound: Cc1ccc(C(=O)N(CCCN)[C@@H](c2nc3cc(Cl)ccc3c(=O)n2Cc2ccccc2)C(C)C)cc1 [Ispinesib] + COc1cccc2cc(-c3nc([C@H]4CC[C@H](C(=O)O)CC4)n4ncnc(N)c34)[nH]c12 [OSI-027] (partner 0.5 µM)
Outline: as §1

Ispinesib + Decitabine = compound: Cc1ccc(C(=O)N(CCCN)[C@@H](c2nc3cc(Cl)ccc3c(=O)n2Cc2ccccc2)C(C)C)cc1 [Ispinesib] + Nc1ncn([C@H]2C[C@H](O)[C@@H](CO)O2)c(=O)n1 [Decitabine] (partner 2 µM)
Outline: as §1

| Cell Line | relative viability (Linsitinib + Lapatinib; first compound 0.01 µM) | relative viability (Linsitinib + Lapatinib; first compound 0.03162 µM) | relative viability (Linsitinib + Lapatinib; first compound 0.1 µM) | relative viability (Linsitinib + Lapatinib; first compound 0.3162 µM) | relative viability (Linsitinib + Lapatinib; first compound 1 µM) | relative viability (Linsitinib + Crizotinib; first compound 0.01 µM) | relative viability (Linsitinib + Crizotinib; first compound 0.03162 µM) | relative viability (Linsitinib + Crizotinib; first compound 0.1 µM) | relative viability (Linsitinib + Crizotinib; first compound 0.3162 µM) | relative viability (Linsitinib + Crizotinib; first compound 1 µM) | relative viability (Ispinesib + OSI-027; first compound 0.001 µM) | relative viability (Ispinesib + OSI-027; first compound 0.003162 µM) | relative viability (Ispinesib + OSI-027; first compound 0.01 µM) | relative viability (Ispinesib + OSI-027; first compound 0.03162 µM) | relative viability (Ispinesib + OSI-027; first compound 0.1 µM) | relative viability (Ispinesib + Decitabine; first compound 0.001 µM) | relative viability (Ispinesib + Decitabine; first compound 0.003162 µM) | relative viability (Ispinesib + Decitabine; first compound 0.01 µM) | relative viability (Ispinesib + Decitabine; first compound 0.03162 µM) | relative viability (Ispinesib + Decitabine; first compound 0.1 µM) |
| --- | --- | --- | --- | --- | --- | --- | --- | --- | --- | --- | --- | --- | --- | --- | --- | --- | --- | --- | --- | --- |
| NCI-H1993 | 0.784 | 0.793 | 0.76 | 0.498 | 0.684 | 0.867 | 0.852 | 0.866 | 0.969 | 0.636 | 0.518 | 0.601 | 0.565 | 0.514 | 0.442 | 0.679 | 0.667 | 0.555 | 0.678 | 0.479 |
| NCI-H23 | 1.19 | 0.904 | 1.04 | 0.21 | 0.587 | 0.416 | 0.445 | 0.591 | 0.351 | 0.451 | 0.581 | 0.656 | 0.808 | 0.235 | 0.201 | 0.27 | 0.326 | 0.304 | 0.309 | 0.213 |
| HCC-827 | 0.208 | 0.197 | 0.17 | – | 0.224 | 0.997 | 1.03 | 0.932 | – | 0.948 | 0.653 | 0.801 | 0.887 | 0.664 | 0.437 | 0.303 | 0.373 | 0.32 | 0.294 | 0.234 |
| PC-3 [JPC-3] | 0.43 | 0.455 | 0.405 | 0.369 | 0.373 | 1.05 | 0.967 | 0.974 | 0.879 | 0.84 | 0.703 | 0.841 | 0.851 | 0.627 | 0.431 | 0.838 | 0.867 | 0.781 | 0.796 | 0.465 |
| NCI-H1355 | 1.04 | 0.983 | 0.865 | 0.547 | 0.546 | 0.974 | 0.997 | 0.888 | 0.79 | 0.664 | 0.352 | 0.442 | 0.427 | 0.316 | 0.261 | 0.364 | 0.364 | 0.405 | 0.33 | 0.307 |
| NCI-H727 | 0.716 | 0.724 | 0.863 | 0.428 | 0.377 | 0.839 | 0.905 | 0.743 | 0.727 | 0.601 | 0.856 | 0.707 | 0.604 | 0.404 | 0.361 | 0.651 | 0.864 | – | 0.737 | 0.761 |
| NCI-H1975 | 0.825 | 0.82 | 0.866 | 1.04 | 0.684 | 0.949 | 0.993 | 0.918 | 0.899 | 0.727 | 0.781 | 0.819 | 0.991 | 0.258 | 0.127 | 0.382 | 0.436 | 0.37 | 0.288 | 0.221 |
| NCI-H460 | 1 | 0.784 | 1.03 | 0.699 | 0.868 | 0.799 | 0.837 | 0.961 | 0.745 | 0.714 | 0.787 | 0.835 | 1.03 | 0.417 | 0.0414 | 0.533 | 0.516 | 0.699 | 0.146 | 0.0478 |
| EPLC-272H | 0.977 | 0.948 | 0.999 | – | 0.736 | 0.774 | 0.995 | 0.873 | – | 0.733 | 0.242 | 0.281 | 0.238 | 0.167 | 0.152 | 0.395 | 0.355 | 0.377 | 0.322 | 0.25 |
| SK-LU-1 | 0.889 | 0.902 | 0.987 | – | 0.815 | 0.805 | 0.752 | 0.859 | – | 0.993 | 0.395 | 0.386 | 0.445 | 0.216 | 0.199 | 0.605 | 0.62 | 0.608 | 0.57 | 0.361 |
| NCI-H322M | 0.63 | 0.612 | 0.567 | 0.933 | 0.507 | 0.912 | 0.879 | 0.961 | 0.753 | 0.855 | 0.621 | 0.529 | 0.549 | 0.448 | 0.331 | 0.744 | 0.771 | 0.697 | 0.666 | 0.559 |
| NCI-H2405 | 1.12 | 1.04 | 1.07 | 0.887 | 0.735 | 0.878 | 0.772 | 0.794 | 0.67 | 0.769 | 0.655 | 0.657 | 0.755 | 0.635 | 0.389 | 0.754 | 0.741 | 0.845 | 0.831 | 0.695 |
| NCI-H1666 | 0.806 | 0.506 | 0.477 | 0.163 | 0.183 | 0.949 | 1.13 | 0.907 | 0.594 | 0.552 | 0.749 | 0.889 | 0.864 | 0.712 | 0.476 | 0.638 | 0.795 | 0.779 | 0.656 | 0.625 |
| NCI-H358 | 0.423 | 0.388 | 0.388 | 0.366 | 0.303 | 0.661 | 0.676 | 0.588 | 0.448 | 0.415 | 0.999 | 0.837 | 1.02 | 0.392 | 0.129 | 0.187 | 0.205 | 0.213 | 0.109 | 0.139 |
| H3255 | 0.247 | 0.284 | 0.19 | 0.245 | 0.206 | 0.84 | 0.817 | 0.95 | 0.773 | 0.813 | 0.577 | 0.574 | 0.588 | 0.552 | 0.414 | 0.573 | 0.629 | 0.622 | 0.495 | 0.41 |
| NCI-H2347 | 0.821 | 0.998 | 0.969 | 0.461 | 0.772 | 0.705 | 0.84 | 0.715 | 0.589 | 0.669 | 0.317 | 0.421 | 0.456 | 0.368 | 0.437 | 0.625 | 0.618 | 0.597 | 0.578 | 0.589 |

— the supplement of paper PMC10307832
